Results from the supplement of paper PMC10920090.

Tests used:
Details in all cases: 72 h
[1] = system: BT-474; assay: drug sensitivity score (DSS), cytotoxicity CellTox Green; higher = more cytotoxic; extreme values may be limits of the assay
Protocol: (§1)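 Targeted FIMM drug screen of 23 compounds at 5 concentrations over a 10,000-fold range in 384-well plates, 1250 cells/well, 72 h at 37 °C. Read-outs were CellTiter-Glo viability and CellTox Green cytotoxicity, normalised to DMSO and benzethonium chloride controls and summarised as drug sensitivity score (DSS). Cells stably transduced with shScramble or one of two shPPFIA1 constructs (shPPFIA1_1 TRCN0000002969, shPPFIA1_2 TRCN0000342514).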

[2] = system: UT-SCC-24A; assay: as above
Protocol: as §1

[3] = system: MDA-MB-231; assay: as above
[4] = system: MDA-MB-231; assay: drug sensitivity score (DSS), cell viability CellTiter-Glo; higher = more sensitive; extreme values may be limits of the assay
[5] = system: BT-474; assay: as above
Protocol: as §1

[6] = system: UT-SCC-24A; assay: as above
Protocol: as §1

Compound | drug sensitivity score ([1]; shRNA: shPPFIA1_1) [DSS] | drug sensitivity score ([1]; shRNA: shPPFIA1_2) [DSS] | drug sensitivity score ([1]; shRNA: shScramble) [DSS] | drug sensitivity score ([2]; shRNA: shPPFIA1_1) [DSS] | drug sensitivity score ([2]; shRNA: shPPFIA1_2) [DSS] | drug sensitivity score ([2]; shRNA: shScramble) [DSS] | drug sensitivity score ([3]; shRNA: shPPFIA1_1) [DSS] | drug sensitivity score ([3]; shRNA: shScramble) [DSS] | drug sensitivity score ([4]; shRNA: shPPFIA1_1) [DSS] | drug sensitivity score ([4]; shRNA: shScramble) [DSS] | drug sensitivity score ([5]; shRNA: shPPFIA1_1) [DSS] | drug sensitivity score ([5]; shRNA: shPPFIA1_2) [DSS] | drug sensitivity score ([5]; shRNA: shScramble) [DSS] | drug sensitivity score ([6]; shRNA: shPPFIA1_1) [DSS] | drug sensitivity score ([6]; shRNA: shPPFIA1_2) [DSS] | drug sensitivity score ([6]; shRNA: shScramble) [DSS]
COc1ccc(-c2ccc3ncc4c(c3c2)n(-c2ccc(N3CCNCC3)c(C(F)(F)F)c2)c(=O)n4C)cn1 [NVP-BGT226] | 2.8 | 6.2 | 4.8 | 7.9 | 6.5 | 7.8 | 0 | 6.4 | 0.8 | 17.3 | 9.6 | 11.3 | 14.2 | 19.4 | 20.4 | 20.7
Cn1c(=O)n(-c2ccc(C(C)(C)C#N)cc2)c2c3cc(-c4cnc5ccccc5c4)ccc3ncc21 [Dactolisib] | 0 | 0 | 0 | 1.3 | 0.5 | 2.3 | 0 | 0 | 0 | 4.2 | 7.4 | 7.4 | 11 | 16.2 | 17 | 18
C[C@@H]1COC(Nc2ccc3ncnc(Nc4ccc(OCc5nccs5)c(Cl)c4)c3c2)=N1 [Varlitinib] | 3.1 | 4.5 | 3.9 | 10.3 | 10.1 | 4 | 0.2 | 0 | 1 | 21.3 | 8.2 | 9.3 | 10.7 | 10.7 | 11 | 9
CC(=O)Nc1cccc(-n2c(=O)n(C3CC3)c(=O)c3c(Nc4ccc(I)cc4F)n(C)c(=O)c(C)c32)c1 [Trametinib] | 0 | 0 | 0 | 18.9 | 18.4 | 7.8 | 5.3 | 12.5 | 0.7 | 12.4 | 0 | 0 | 0.1 | 19.6 | 18.5 | 15.4
CN[C@@H](C)C(=O)N[C@H]1CN(C(=O)CC(C)C)CC[C@H]2CC[C@@H](C(=O)NC(c3ccccc3)c3ccccc3)N2C1=O [AT-406] | 1.3 | 1.4 | 0.2 | 7.8 | 13.5 | 5.3 | 32.3 | 19.8 | 17 | 3.4 | 0 | 0 | 0 | 1 | 1.9 | 0
CCC1=C[C@@H]2CN(C1)Cc1c([nH]c3ccccc13)[C@@](C(=O)OC)(c1cc3c(cc1OC)N(C)[C@H]1[C@@](O)(C(=O)OC)[C@H](OC(C)=O)[C@]4(CC)C=CCN5CC[C@]31[C@@H]54)C2 [Vinorelbine] | 11.1 | 13.2 | 13.8 | 8.4 | 8.4 | 13.1 | 7.2 | 2.7 | 0 | 19.9 | 9.2 | 10 | 18.7 | 12 | 18 | 15.3
O=C(NC[C@H](O)CO)c1ccncc1Nc1ccc(I)cc1F [Pimasertib] | 0 | 0.2 | 0 | 28.5 | 23.5 | 15.6 | 6.2 | 11.7 | 2.4 | 12.4 | 0.1 | 0.5 | 0.4 | 25.6 | 23.4 | 20.5
O=C(Nc1ccc2[nH]nc(-c3ccncc3)c2c1)[C@@H]1CCN(CC(=O)N2CCN(c3ccc(-c4ncccn4)cc3)CC2)C1 | 0 | 0.2 | 0 | 21.7 | 21.1 | 11.6 | 6 | 10.9 | 2.1 | 10.8 | 0 | 0 | 0 | 21.3 | 20.5 | 17.3
CO[C@H]1C[C@@H]2CC[C@@H](C)[C@@](O)(O2)C(=O)C(=O)N2CCCC[C@H]2C(=O)O[C@H]([C@H](C)C[C@@H]2CC[C@@H](OC(=O)C(C)(CO)CO)[C@H](OC)C2)CC(=O)[C@H](C)/C=C(\C)[C@@H](O)[C@@H](OC)C(=O)[C@H](C)C[C@H](C)/C=C/C=C/C=C/1C [Temsirolimus] | 0 | 0 | 0 | 0 | 0 | 0 | 0 | 0 | 0 | 7.9 | 7.8 | 6.2 | 9.8 | 2.8 | 4.1 | 4.4
Cc1cc(C(=O)NOCCO)c(Nc2ccc(I)cc2F)n(C)c1=O [AZD-8330] | 0 | 0 | 0 | 28.4 | 27.6 | 14.2 | 15 | 20.3 | 5.5 | 21.8 | 0 | 0 | 0 | 30 | 27.6 | 23.9
CO[C@H]1C[C@@H]2CC[C@@H](C)[C@@](O)(O2)C(=O)C(=O)N2CCCC[C@H]2C(=O)O[C@H]([C@H](C)C[C@@H]2CC[C@@H](OCCO)[C@H](OC)C2)CC(=O)[C@H](C)/C=C(\C)[C@@H](O)[C@@H](OC)C(=O)[C@H](C)C[C@H](C)/C=C/C=C/C=C/1C [Everolimus] | 0 | 0 | 0 | 0 | 0 | 0 | 0 | 0 | 0 | 6.1 | 5.2 | 3.6 | 5.2 | 1.3 | 2.5 | 2.9
CC(=O)O[C@@]12CO[C@@H]1C[C@H](O)[C@@]1(C)C(=O)[C@H](O)C3=C(C)[C@@H](OC(=O)[C@H](O)[C@@H](NC(=O)OC(C)(C)C)c4ccccc4)C[C@@](O)([C@@H](OC(=O)c4ccccc4)[C@H]21)C3(C)C [Docetaxel] | 20.1 | 20.5 | 20.9 | 16.2 | 15.2 | 20.1 | 7.3 | 8.7 | 1.3 | 16.8 | 16.1 | 16.8 | 20.6 | 17.3 | 18.8 | 18.7
CC(C)CC(=O)Nc1n[nH]c2c1CN(C(=O)C1CCN(C)CC1)C2(C)C | 0.9 | 1.1 | 0.4 | 1.9 | 1.4 | 1.2 | 3.2 | 0 | 1.8 | 20.1 | 1.2 | 1.3 | 1.5 | 8.1 | 8.5 | 5.8
CN(C)C/C=C/C(=O)Nc1cc2c(Nc3ccc(F)c(Cl)c3)ncnc2cc1O[C@H]1CCOC1 [Afatinib] | 7.4 | 8.7 | 7.9 | 20.4 | 19.8 | 12 | 0 | 0 | 0.2 | 1.4 | 13.2 | 13.3 | 16.2 | 18.5 | 18.1 | 13.4
COc1cc(C(=O)NC2CCN(C)CC2)c(F)cc1Nc1ncc2c(n1)N(C1CCCC1)CC(F)(F)C(=O)N2C [TAK-960] | 0 | 0 | 0 | 0 | 0 | 0 | 0 | 0.9 | 4.9 | 20.6 | 0 | 0 | 0 | 0 | 0 | 0
COc1cc2ncnc(Nc3ccc(F)c(Cl)c3)c2cc1OCCCN1CCOCC1 [Gefitinib] | 4.1 | 5.6 | 4.8 | 19.4 | 17.3 | 8.3 | 0 | 0 | 2.3 | 2.3 | 7.8 | 9.1 | 10.8 | 19.6 | 18.4 | 12.1
Cc1cc([C@@H](C)Nc2ccccc2C(=O)O)c2nc(N3CCOCC3)cc(=O)n2c1 [AZD-6482] | 0.2 | 0.1 | 0.1 | 2 | 1 | 0.8 | 0 | 0.9 | 4.2 | 19.8 | 1.5 | 1.1 | 2.1 | 2.1 | 1.9 | 1.4
CC(=O)NCC(=O)N1[C@@H]2CC[C@H]1c1ccc(Nc3ncc(C(F)(F)F)c(NC4CCC4)n3)cc12 | 3 | 3.7 | 3.5 | 4.1 | 3.9 | 4.3 | 2.8 | 0 | 5.5 | 21.7 | 2.7 | 2.8 | 4.5 | 8 | 8.7 | 8.5
CN[C@@H](C)C(=O)N[C@H](C(=O)N1CCC[C@H]1c1nc(C(=O)c2ccc(F)cc2)cs1)C1CCCCC1 [NVP-LCL161] | 2.4 | 3.3 | 1.3 | 10.2 | 12.8 | 8.1 |  |  |  |  | 1 | 1.4 | 0.7 | 4.5 | 5.7 | 4.2
C#Cc1cccc(Nc2ncnc3cc(OCCOC)c(OCCOC)cc23)c1 [Erlotinib] | 0.8 | 1.1 | 1.2 | 17.8 | 11.4 | 8.3 | 0 | 0 | 2.8 | 4 | 2.5 | 2.9 | 3.9 | 20.8 | 14 | 11.9
CCOc1ccn(-c2ccc(F)cc2)c(=O)c1C(=O)Nc1ccc(Oc2ccnc(N)c2Cl)c(F)c1 | 0 | 0 | 0 | 0 | 0 | 0 | 0 | 0.9 | 0 | 21 | 0 | 0 | 0 | 0 | 0 | 0
O=C(NOCCO)c1ccc2cncn2c1Nc1ccc(I)cc1F [GDC-0623] | 0 | 0 | 0 | 1.8 | 0 | 0.8 | 5.2 | 11.2 | 3.7 | 18.1 | 0 | 0 | 0 | 2 | 0 | 1.8
